The values below come from paper PMC3480206 (Future microbiology, 2012).

One assay has as its system EMB-resistant Mtb. Conditions: cited from earlier work.
For assay [1], the system named is Mycobacterium tuberculosis. The assay can be described thus: Alamar MIC. The assay is classed as cell-based. The settings on record: TAACF.
Assay [2] deals with Mycobacterium tuberculosis XDR strains. Nature of the assay: microbe, parasite or virus in culture. The assay is classed as cell-based.

Values after ≈ are worked out from the molar mass of the structure shown. Where only a bound is given, the exact number is not on record here.

Regarding `CC[C@@H](CO)NCCN[C@@H](CC)CO` [EMB, ethambutol], in the assay on EMB-resistant Mtb, the “MIC on EMB-resistant Mtb” value is 184 µg/mL (≈ 901 µM).
With `CC(C)=CCC/C(C)=C/CNCCNC1C2CC3CC(C2)CC1C3` (centres unmarked) [SQ109, N-geranyl-N′-(2-adamantyl)ethane-1,2-diamine], the MIC was 0.78 µg/mL (≈ 2.36 µM) in assay [1] (ATCC35822, INH-resistant, ATCC 35822, Alamar); no more than 0.39 µg/mL in assay [1] (ATCC35838, RIF-resistant, ATCC 35838, Alamar); no more than 0.39 µg/mL in assay [1] (CIP-resistant, Alamar); 0.78 µg/mL (≈ 2.36 µM) in assay [1] (EMB-resistant, Alamar); 0.78 µg/mL (≈ 2.36 µM) in assay [1] (KAN-resistant, Alamar); 0.2 µg/mL (≈ 0.605 µM) in assay [2] (Mycobacterium tuberculosis). Further, in assay [2] (XDR, also EMB-resistant, strain 587W1, Microbroth), the MIC is 0.20 µg/mL (≈ 0.605 µM).
